Legend:
[1] = UV spectrophotometric analysis of compounds in solution; type: physicochemical; details: for ʎmax: 10 µg/mL solution, DMSO diluted in MeOH; for Ɛ (molar extinction coefficient): at ʎmax, Lambert–Beer equation
Description: The synthesized compounds were solubilised in DMSO and diluted in MeOH, and the absorbance of the 10 µg/mL solution was measured between 290–400 nm with a UV-Vis spectrophotometer (SHIMADZU UV-2600 240 V, 1 cm quartz cell at 1 nm intervals). The absorbance at wavelength λ is related to the transmittance T(λ) via the Equation (1): A(λ) = −Log[T(λ)](1) where T(λ) is the fraction of incident irradiance transmitted by the sample. […]
The molar extinction coefficient was calculated with the absorbance recorded at the ʎmax applying the Lambert–Beer equation.

[2] = In vitro filtering parameters of O/W sunscreen formulation on PMMA plates; details: 3% in O/W sunscreen formulation
Description: Synthesized compounds were incorporated at 3% concentration in a suitable oil-in-water (O/W) emulsion for cosmetic use as sunscreen.
INCI: Aqua, Glycerin, Xanthan Gum, Phenoxyethanol (and) Ethylhexylglycerin, Tribehenin PEG-20 Esters, Cetearyl Alcohol, Dicaprylyl Carbonate, PPG 26 Buteth-26 (and) PEG 40 Hydrogenated Castor Oil, C12-15 Alkyl Benzoate, Sodium hydroxide (sol. 10%).
A protocol previously reported by us was adopted. Briefly, 32.5 mg of each compound formulation was spread on the rough surface of 5 × 5 cm^2 PMMA plates in the form of small drops of approximately equal mass, in triplicate. The plates were placed in the dark for 15–30 min to allow the formation of a sun-stabilised standard layer and then inserted into the instrument and measured at five different points on each plate (UV transmittance range 290–400 nm). The blank was a plate coated with 32.5 mg glycerine, chosen for its non-fluorescence and UV transparency. In addition, in vitro SPF, UVAPF and ʎc values were calculated according to Equations (2)–(4) above. To evaluate the booster effect of selected synthesized compounds, they were incorporated at 3% concentration in an oil-in-water (O/W) sunscreen formulation with fixed SPF and UVAPf values (30 and 10, respectively).
Aiming to create compounds with diverse biological activities, the synthesized 2-styrylbenzothiazoles were examined for potential applications in sunscreens. Each candidate was incorporated into a standard cosmetic formulation at a concentration of 3% and subjected to photoprotective efficacy testing using the Diffey–Robson method. The formulation comprised an oil-in-water (O/W) emulsion suitable for sunscreen use, with each benzothiazole derivative being heat-solubilized in the oil phase and then dispersed into the emulsion using a turbo emulsifier. The mixture was then cooled, and the emulsion was spread onto polymethylmethacrylate (PMMA) plates before recording the transmittance spectra. The SPF value, UVA protection factor value (UVAPF), the […], and the critical wavelength (λc) were determined from the transmittance spectra using SPF calculator software and are presented in Table 3. These parameters are essential for evaluating the efficacy of potential sunscreen products.

[3] = target: T1, 5-LO in A23187-stimulated human PMNL (Homo sapiens, UniProt P09917); assay: 5-Lipoxygenase inhibition in a cell-based assay (PMNL); details: for remaining activity at 10 µM: PMNL, % relative to vehicle (DMSO), read-out: 5-LO Residual Activity (PMNL, 10 µM); for IC50: activated PMNL
T1 construct: Freshly isolated PMNL (1 × 10^6 cells/mL) in PBS buffer pH 7.4; endogenous in cells; host or cells: primary human PMNL (neutrophils) isolated from blood
T1 sequence (P09917 1-674): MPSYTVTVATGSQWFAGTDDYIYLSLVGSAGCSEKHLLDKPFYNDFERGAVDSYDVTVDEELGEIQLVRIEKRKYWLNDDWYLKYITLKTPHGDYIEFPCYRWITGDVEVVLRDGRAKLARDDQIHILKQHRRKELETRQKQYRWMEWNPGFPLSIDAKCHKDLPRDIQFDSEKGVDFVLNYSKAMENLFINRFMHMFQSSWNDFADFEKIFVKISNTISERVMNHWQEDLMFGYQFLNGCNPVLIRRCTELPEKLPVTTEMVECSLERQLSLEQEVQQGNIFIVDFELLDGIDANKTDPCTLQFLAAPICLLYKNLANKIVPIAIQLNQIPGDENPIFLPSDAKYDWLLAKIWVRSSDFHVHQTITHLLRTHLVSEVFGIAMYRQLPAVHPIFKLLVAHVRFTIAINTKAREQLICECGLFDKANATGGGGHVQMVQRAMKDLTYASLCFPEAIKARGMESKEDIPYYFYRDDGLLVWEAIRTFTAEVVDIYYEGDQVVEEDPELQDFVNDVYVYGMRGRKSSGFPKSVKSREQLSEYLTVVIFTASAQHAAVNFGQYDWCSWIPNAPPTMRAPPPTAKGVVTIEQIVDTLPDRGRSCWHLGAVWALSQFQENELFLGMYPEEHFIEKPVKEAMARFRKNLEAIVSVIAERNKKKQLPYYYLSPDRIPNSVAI
Description: Following blood density centrifugation and cell population separation, PMNL was recovered from the pellet after hypotonic lysis of erythrocytes. Freshly isolated PMNL (1 × 10^6 cells/mL) in PBS buffer pH 7.4 with glucose (1 mg/mL) and CaCl2 (1 mM) was pre-incubated with the test compounds for 10 min at 37 °C. Then, 5-lipoxygenase (5-LO) product formation was started by addition of 2.5 μM Ca^2+-ionophore A23187 plus 20 μM arachidonic acid. The reaction was stopped after 10 min at 37 °C with 1 mL of ice-cold methanol containing 200 ng PGB1 as internal standard. Major 5-LO products (LTB4, trans-LTB4, epi-trans-LTB4, and 5-HETE) were extracted by SPE using Sep-Pak C18 35 cc Vac Cartridges (Waters, Milford, MA, USA) and analysed by UPLC-MS/MS as described by Pein et al..

| SMILES | ʎmax [1] [nm] | Ɛ (molar extinction coefficient) [1] | SPF [2] | UVA/UVB [2] | UVAPF [2] | ʎc (critical wavelength) [2] [nm] | remaining activity at 10 µM [3] [%] | IC50 [3] [nM] |
| --- | --- | --- | --- | --- | --- | --- | --- | --- |
| COc1ccc(/C=C/c2nc3ccccc3s2)cc1O [BZTst5, (E)-5-(2-(benzo[d]thiazol-2-yl)vinyl)-2-methoxyphenol] | 358.0 | 22,513.37 dm^3 mol^−1 cm^−1 | 2.91 | 0.93 | 2.70 | 384 | 74 ± 25.8 |  |
| Oc1ccc(/C=C/c2nc3ccccc3s2)cc1 [BZTst2, (E)-4-(2-(benzo[d]thiazol-2-yl)vinyl)phenol] | 354.4 | 30,835.44 dm^3 mol^−1 cm^−1 | 2.59 | 1.46 | 5.69 | 384 | 22.9 ± 14.6 | 2900 |
| Oc1ccc(/C=C/c2nc3ccccc3s2)cc1O [BZTst4, (E)-4-(2-(benzo[d]thiazol-2-yl)vinyl)benzene-1,2-diol] | 363.3 | 22,070.71 dm^3 mol^−1 cm^−1 | 3.87 | 1.47 | 7.65 | 389 | 0.79 ± 0.49 | 700 |
| COc1ccc(/C=C/c2nc3ccccc3s2)cc1 [BZTst3, (E)-2-(4-methoxystyryl)benzo[d]thiazole] | 351.0 | 35,125.63 dm^3 mol^−1 cm^−1 | 2.26 | 1.59 | 3.07 | 378 | 75.3 ± 19.7 |  |
| C(=C\c1nc2ccccc2s1)/c1ccccc1 [BZTst1, (E)-2-styrylbenzo[d]thiazole] | 335.0 | 34,075.83 dm^3 mol^−1 cm^−1 | 13.88 | 0.96 | 7.08 | 364 | 48.7 ± 10.2 |  |
| COc1cc(/C=C/c2nc3ccccc3s2)ccc1O [BZTst6, (E)-4-(2-(benzo[d]thiazol-2-yl)vinyl)-2-methoxyphenol] | 361.2 | 16,871.66 dm^3 mol^−1 cm^−1 | 3.43 | 1.96 | 14.13 | 388 | 7.11 ± 4.9 | 950 |
